{"source": "patent US20190070296A1", "about": "“SONODYNAMIC THERAPY” (LI-COR, INC., priority 2017, published 2019)", "key": {"[1]": {"assay": "Sonoactivation of IRDye 700DX solution; reactive oxygen species detected with dihydrorhodamine 123 (DHRd123) indicator", "from_the_text": "The results illustrate that ultrasonic waves enhance the emission of a reactive oxygen species indicator, which indicates the occurrence of one of the sonodynamic effects generated by applying ultrasonic energy to IRDye® 700DX under the experimental conditions. In this example, the concentration of IRDye® 700DX was 1 μm.\nThe experiment included dihydroxy rhodamine 123 to detect the presence of reactive oxygen species. Reactive oxygen species were detected.\nThe results illustrate a continuous treatment of a 1 MHz ultrasonic wave. […] The experiment included dihydroxy rhodamine 123 to detect the presence of reactive oxygen species. Reactive oxygen species were detected. […]"}, "[2]": {"assay": "Emission profile of IRDye 700DX (700 nm range) after ultrasound: stability of the dye", "assay_type": "physicochemical", "details": "1MHz ultrasonic wave at 3 W/cm^2, 15 minutes"}, "[3]": {"assay": "Sonoactivation of IRDye 700DX solution; singlet oxygen detected with Sensor Green indicator", "details": "ultrasonic wave at 1MHz and 2.0W/cm^2", "from_the_text": "As shown therein, there is generation of singlet oxygen during the sonodynamic process. By applying the ultrasonic wave at 1MHz and 2.0W/cm^2 to the agent IRDye® 700DX, the enhancement of the emission of the singlet oxygen indicator, Sensor Green (SG), indicates the occurrence of a sonodynamic effects. Singlet oxygen was detected.\nBoth sonosensitization, also known as sonodynamic activation or sonoactivation, and photosensitization, also known as photodynamic activation or photoactivation, trigger reactive oxidation species (ROS) or single oxygen (^1O2) that results in cell death via either apoptosis or necrosis, and thus sonodynamic therapy (SDT) or photodynamic therapy (PDT), respectively."}, "A431 cells": {"tested_on": "A431 cells", "assay": "VB-48 Assay: vitality, viability and necrosis after probe labeling and irradiation", "assay_type": "cell-based", "details": "irradiated 32 J/cm^2; RGD-700DX 0.5 μM, EGF-700DX 0.5 μM, 700DX NHSe 5 μM, Pan-700DX ~0.1 μM; 24 hours post treatment", "description": "Briefly, A431 cells were labeled with respective probes for specific treatments (listed below); cells were rinsed and evaluated for labeling. The test include the following treatments: […], treatments 3-4 of EGF-IRDye® 700DX at 0.5 μM and radiation, treatments 5-6 of IRDye® 700DX NHSe at 5 μM and radiation, treatments 7-8 of panitumumab-IRDye® 700DX at about 0.1 μM and radiation, treatment 9 of a negative control with no probe and no irradiation, and treatment 10 of RGD-IRDye® 700DX and no irradiation. The probes were incubated for about 10 minutes and with a longer period of about 20 minutes for the RGD probe."}, "[4]": {"details": "continuous treatment of a 1 MHz ultrasonic wave"}}}
{"compound": "COC(=O)c1ccccc1C1c2ccc(N)cc2Oc2cc(N)ccc21", "note": "[Sensitizer DHRd123 Solution, dihydrorhodamine 123, reference compound]", "values": [{"measurement": "Primary Sonodynamic Effect Detected", "setting": "[1]; DHRd123 solution 2.5 uM alone, no IRDye 700DX, no sonodynamic activation", "value": "None"}, {"measurement": "Primary Sonodynamic Effect Detected", "setting": "[1]; DHRd123 solution alone, no IRDye 700DX, 3.3 MHz, 3 W/cm^2, 15 min, duty cycle 20%, 540 J/cm^2", "value": "ROS"}]}
{"compound": "C[Si](C)(CCC[N+](CCCS(=O)(=O)[O-])(CCCS(=O)(=O)[O-])CCCS(=O)(=O)[O-])O[Si]1(O[Si](C)(C)CCC[N+](CCCS(=O)(=O)[O-])(CCCS(=O)(=O)[O-])CCCS(=O)(=O)[O-])n2c3c4ccccc4c2N=C2N=C(N=c4c5ccccc5c(n41)=NC1=NC(=N3)c3ccccc31)c1cccc(OCCCOC(=O)NCCCCCC(=O)ON3C(=O)CCC3=O)c12.[Na+].[Na+].[Na+].[Na+]", "note": "(centres unmarked) [IRDye® 700DX]", "values": [{"measurement": "chemical structure of the dye after sonodynamic activation (emission profile at 700 nm range)", "setting": "[2]", "value": "did not decompose"}, {"measurement": "generation of singlet oxygen (Sensor Green), FIG. 5", "setting": "[3]", "value": "detected"}, {"measurement": "Primary Sonodynamic Effect Detected", "setting": "[1]; 700DX 1 uM with DHRd123, no sonodynamic activation (placebo), 7 min", "value": "None"}, {"measurement": "Primary Sonodynamic Effect Detected", "setting": "[1]; 700DX 1 uM with DHRd123, no sonodynamic activation (placebo), 15 min", "value": "Minimal"}, {"measurement": "Primary Sonodynamic Effect Detected", "setting": "[1]; 700DX with DHRd123, 1 MHz, 2.2 W/cm^2, 7 + 7 min, duty cycle 20%, 370 J/cm^2", "value": "ROS+"}, {"measurement": "Primary Sonodynamic Effect Detected", "setting": "[1]; 700DX with DHRd123, 1 MHz, 2.2 W/cm^2, 7 min, duty cycle 20%, 185 J/cm^2", "value": "ROS"}, {"measurement": "Primary Sonodynamic Effect Detected", "setting": "[1]; 700DX with DHRd123, 1 MHz, 2.2 W/cm^2, 15 min, duty cycle 20%, 396 J/cm^2", "value": "ROS++"}, {"measurement": "Primary Sonodynamic Effect Detected", "setting": "[1]; 700DX with DHRd123, 3.3 MHz, 3 W/cm^2, 7 min, duty cycle 20%, 252 J/cm^2", "value": "ROS"}, {"measurement": "Primary Sonodynamic Effect Detected", "setting": "[1]; 700DX with DHRd123, 3.3 MHz, 3 W/cm^2, 15 min, duty cycle 20%, 540 J/cm^2", "value": "ROS++"}, {"measurement": "emission of the reactive oxygen species indicator (FIG. 3)", "setting": "[1]; IRDye 700DX 1 μm, 1MHz ultrasonic wave at 3 W/cm^2, 15 minutes", "value": "large increase in the emission of the indicator"}, {"measurement": "emission peak of the reactive oxygen species indicator (FIG. 3)", "setting": "[1]; IRDye 700DX 1 μm, duration 7 minutes", "value": "not as enhanced as with 15 minutes duration"}, {"measurement": "presence of reactive oxygen species (dihydroxy rhodamine 123), FIG. 3", "setting": "[1]; IRDye 700DX 1 μm, ultrasonic wave 7 or 15 minutes", "value": "detected"}, {"measurement": "effect of increasing the pulse duration on reactive oxygen species (FIG. 4)", "setting": "[1]; [4]", "value": "increases the generation of reactive oxygen species"}, {"measurement": "presence of reactive oxygen species (dihydroxy rhodamine 123), FIG. 4", "setting": "[1]; [4]", "value": "detected"}]}
{"compound": "EGF-700DX", "values": [{"measurement": "Cells/mL", "setting": "A431 cells", "value": "3.4 × 10^5 Cells/mL"}, {"measurement": "Low % Vitality", "setting": "A431 cells", "value": 19, "unit": "%"}]}
{"compound": "Pan-700DX: panitumumab antibody labeled with IRDye 700DX", "values": [{"measurement": "% Healthy", "setting": "A431 cells", "value": 15.0, "unit": "%"}, {"measurement": "% Necrotic", "setting": "A431 cells", "value": 70, "unit": "%"}, {"measurement": "Cells/mL", "setting": "A431 cells", "value": "1.2 × 10^5 Cells/mL"}, {"measurement": "Est % Viability", "setting": "A431 cells", "value": "30-40%"}, {"measurement": "Low % Vitality", "setting": "A431 cells", "value": 15, "unit": "%"}]}
